Where two headings read alike, the source gives them in different places. Numbered stars: 1 amine (or outer) side, 2 acyl side, 3 side chain; on linkers, the order of the positions; unused ones are H or OH. Square brackets hold non-standard residues; d marks the D form. Peptide text beside a SMILES is read from it. * marks the point of attachment. X3 = COc1cc(CC(=O)[*:2])ccc1N[*:1]; X2 = O=C(Cc1ccc(N[*:1])cc1)[*:2]; NH(2-Me-phenyl) = Cc1ccccc1N*; CO = O=C([*:1])[*:2]; NHPh = c1ccc(N*)cc1; X1 = Oc1ccccc1N*

For the assay, the target named is T1, VLA4 (Homo sapiens, UniProt P05556+P13612).
T1 construct: endogenous in cells; host or cells: Ramos cells
In words: Inhibition of VLA4-dependent adhesion of Ramos cells to BSA-CS1. It counts as cell-based. The text has this:
For example, the cell adhesion inhibitory activity of these compounds may be measured by determining the concentration of inhibitor required to block the binding of VLA-4-expressing cells to fibronectin- or CS1-coated plates. In this assay microtiter wells are coated with either fibronectin (containing the CS1-sequence) or CS-1. If CS-1 is used, it must be conjugated to a carrier protein, such as bovine serum albumin, in order to bind to the wells. Once the wells are coated, varying concentrations of the test compound are then added together with appropriately labelled, VLA-4-expressing cells. Alternatively, the test compound may be added first and allowed to incubate with the coated wells prior to the addition of the cells. The cells are allowed to incubate in the wells for at least 30 minutes. Following incubation, the wells are emptied and washed. Inhibition of binding is measured by quantitating the fluorescence or radioactivity bound to the plate for each of the various concentrations of test compound, as well as for controls containing no test compound.
VLA-4-expressing cells that may be utilized in this assay include Ramos cells, Jurkat cells, A375 melanoma cells, as well as human peripheral blood lymophocytes (PBLs). The cells used in this assay may be fluorescently or radioactively labelled.
This assay was used to assess the potency of VLA4-directed inhibitory compounds of this invention. 1.
We dissolved BSA-SMCC (Pierce Chemical, Rockford, Ill.; Catalog #77115) in H2O at a concentration of 10 mg/mL. [SEQ ID NO:4]: […](“Cys-Tyr-CS1 peptide”), which we synthesized by conventional solid phase chemistry and purified by HPLC, was dissolved in 10 mM HEPES pH 5, 50 mM NaCl and 0.1 mM EDTA also at a concentration of 10 mg/mL. We then mixed 500 μL of BSA-SMCC, 250 μL of Cys-Tyr-CS1 peptide and 75 μL of 1 mM HEPES pH 7.5 and allowed the conjugation reaction to proceed for 30 minutes. We stopped the reaction by adding 1 μL of beta-mercaptoethanol. Samples were analyzed for cross-linking by SDS-PAGE.
We coated the wells of a Linbro titertek polystyrene 96-well flat bottom plate (Flow Laboratories, Maclean, Va.; catalog #76-231-05) with 100 μL of the above-described BSA-CS1 solution diluted to 1 μg/mL in 0.05 M NaHCO3 (15 mM NaHCO3, 35 mM Na2CO3) pH 9.2. Some wells were not coated with CS1 in order to assess non-specific cell binding (NSB). The plate was then incubated overnight at 4° C.
Following this incubation, the contents of the wells were removed by inverting and blotting the plate. All of the wells were then blocked with 100 μL of 1% BSA in PBS, 0.02% NaN3, for a minimum of one hour at room temperature.
Ramos cells are grown, maintained and labelled in RPMI 1640 culture medium containing 1% BSA. Just prior to running the assay, we added 2′, 7′-bis-(2-carboxyethyl)-5(and -6)carboxyfluorescein acetoxymethyl ester (“BCECF-AM”; Molecular Probes Inc., Eugene, Oregon; catalog #B-1150) to a final concentration of 2 μM to a culture of Ramos cells (4×10^6 cells/mL). We incubated the cells for 20 minutes at 37° C.
Following labelling, the cells were washed twice in assay buffer (24 mM TRIS, 137 mM NaCl, 2.7 mM KCl, pH 7.4, containing 0.1 BSA and 2mM glucose) to remove any cations originating from the culture medium. The cells were then resuspended in assay buffer to 4×10^6 cells/mL and 2 mM MnCl2 was added to upregulate VLA4 on the surface of the cells.
Immediately prior to running the assay, we removed the BSA blocking solution from the 96-well plates and washed the wells with 100 μL of assay buffer. We then added to each well 25 μL of test cell adhesion inhibitory compound at 2×the final concentration and 25 μL of the labelled Ramos cells. […] Each concentration of compound was tested in triplicate. The compound and cells are allowed to incubate for 30 minutes at room temperature.

[1] abbreviates: Ramos cells, BSA-CS1 coated wells, 2 mM MnCl2, 30 minutes at room temperature, read-out: IC50.

T1 sequence (P13612 34-1032): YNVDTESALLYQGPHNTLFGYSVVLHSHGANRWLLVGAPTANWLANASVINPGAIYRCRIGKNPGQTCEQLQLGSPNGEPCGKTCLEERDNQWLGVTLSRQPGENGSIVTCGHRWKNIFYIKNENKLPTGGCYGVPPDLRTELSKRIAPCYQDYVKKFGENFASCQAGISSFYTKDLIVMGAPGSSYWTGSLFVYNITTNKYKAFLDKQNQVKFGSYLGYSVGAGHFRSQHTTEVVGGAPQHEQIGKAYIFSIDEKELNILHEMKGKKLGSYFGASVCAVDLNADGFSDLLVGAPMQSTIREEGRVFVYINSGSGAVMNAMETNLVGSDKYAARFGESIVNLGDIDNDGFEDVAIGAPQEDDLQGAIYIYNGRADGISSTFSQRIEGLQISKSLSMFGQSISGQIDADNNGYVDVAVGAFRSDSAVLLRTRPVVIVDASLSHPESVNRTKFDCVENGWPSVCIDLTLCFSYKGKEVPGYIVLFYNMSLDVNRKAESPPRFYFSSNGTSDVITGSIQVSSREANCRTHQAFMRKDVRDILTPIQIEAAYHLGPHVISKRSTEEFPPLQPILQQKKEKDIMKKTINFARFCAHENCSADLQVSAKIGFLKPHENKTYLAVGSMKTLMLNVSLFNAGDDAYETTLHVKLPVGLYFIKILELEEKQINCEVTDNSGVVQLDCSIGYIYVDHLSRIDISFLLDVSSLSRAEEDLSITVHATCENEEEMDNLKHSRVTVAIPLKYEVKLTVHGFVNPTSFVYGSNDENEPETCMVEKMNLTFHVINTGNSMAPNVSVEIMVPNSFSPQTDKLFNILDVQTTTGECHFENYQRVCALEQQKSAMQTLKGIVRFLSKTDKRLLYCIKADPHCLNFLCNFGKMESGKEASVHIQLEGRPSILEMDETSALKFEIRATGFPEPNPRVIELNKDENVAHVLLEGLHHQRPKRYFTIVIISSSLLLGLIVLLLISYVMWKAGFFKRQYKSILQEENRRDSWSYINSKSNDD
T1 sequence (P05556 21-798): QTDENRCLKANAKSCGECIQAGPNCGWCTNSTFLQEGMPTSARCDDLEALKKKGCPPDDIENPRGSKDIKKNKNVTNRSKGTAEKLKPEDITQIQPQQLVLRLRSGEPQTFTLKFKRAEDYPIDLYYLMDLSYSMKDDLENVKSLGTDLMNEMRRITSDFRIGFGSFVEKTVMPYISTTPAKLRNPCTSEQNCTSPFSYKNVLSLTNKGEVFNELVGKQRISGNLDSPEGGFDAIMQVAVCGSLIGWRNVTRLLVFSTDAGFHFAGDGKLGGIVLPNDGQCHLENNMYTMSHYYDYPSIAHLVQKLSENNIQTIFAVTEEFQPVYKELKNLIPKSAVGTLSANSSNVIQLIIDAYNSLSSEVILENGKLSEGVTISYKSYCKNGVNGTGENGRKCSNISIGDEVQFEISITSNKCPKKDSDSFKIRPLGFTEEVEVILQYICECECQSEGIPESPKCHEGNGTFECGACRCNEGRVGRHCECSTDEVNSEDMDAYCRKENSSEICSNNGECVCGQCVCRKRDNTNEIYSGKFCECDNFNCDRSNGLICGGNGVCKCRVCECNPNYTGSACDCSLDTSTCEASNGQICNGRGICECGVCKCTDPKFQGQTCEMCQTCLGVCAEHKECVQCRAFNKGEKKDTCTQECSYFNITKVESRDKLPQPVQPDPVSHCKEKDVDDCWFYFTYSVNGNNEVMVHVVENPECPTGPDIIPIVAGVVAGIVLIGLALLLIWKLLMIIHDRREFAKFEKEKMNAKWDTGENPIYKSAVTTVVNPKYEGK

For `CC(C)C[C@@H](C(=O)N[C@@H](CC(=O)O)C(=O)N[C@H](C(=O)O)C(C)C)N(C)C(=O)c1ccccc1` [Compound 113] (HELM PEPTIDE1{[O=C(c1ccccc1)[*:2]].[meL].D.V}$$$$V2.0), the IC50 (in general, the midpoint of a concentration-inhibition curve) under setting [1] is over 10 µM.
`CC(C)C[C@H](NC(=O)C1CCc2ccccc2N1)C(=O)N[C@@H](CC(=O)O)C(=O)N[C@H](C(=O)N1CCC(c2ccccc2)CC1)C(C)C` (some centres unmarked) [Compound 115] came in with an IC50 of over 10 µM.
Regarding `CCCCCCNC(=O)[C@H](CC(=O)O)NC(=O)[C@H](CC(C)C)NC(=O)CCc1ccc(O)cc1` [Compound 116], the IC50 under setting [1] is over 10 µM.
For `CC(C)C[C@H](NC(=O)CCc1ccc(O)cc1)C(=O)N[C@@H](CC(=O)O)C(=O)N(CC(C)C)CC(C)C` [Compound 117], the IC50 under setting [1] is over 10 µM.
Same read-out and setting: the same measure for `CCCCCCNC(=O)[C@@H](NC(=O)[C@H](CC(=O)O)NC(=O)[C@H](CC(C)C)NC(=O)CCc1ccc(O)cc1)C(C)C` [Compound 119]: over 10 µM.
Turning to `CC(C)CC(NC(=O)C1CCc2ccccc2N1)C(=O)NC(CC(=O)O)C(=O)NC(C(=O)N(C)c1ccccc1)C(C)C` (centres unmarked) [Compound 120], the IC50 is over 10 µM.
For `CC(C)C[C@H](NC(=O)c1ccc2ccccc2n1)C(=O)N[C@@H](CC(=O)O)C(=O)N[C@H](C(=O)N(C)c1ccccc1)C(C)C` [Compound 121], the IC50 under setting [1] was over 10 µM.
On the same count and under the same terms, in the case of `CC(C)C[C@H](NC(=O)C1CCc2ccccc2N1)C(=O)N[C@@H](CC(=O)O)C(=O)N[C@H](C(=O)Nc1ccc(F)cc1)C(C)C` (some centres unmarked) [Compound 122] it was over 10 µM; in that of `CC(C)C[C@H](NC(=O)c1ccc2ccccc2n1)C(=O)N[C@@H](CC(=O)O)C(=O)N[C@H](C(=O)Nc1ccc(F)cc1)C(C)C` [Compound 123], over 10 µM.
Consider `CC(C)C[C@H](NC(=O)C1CCc2ccccc2N1)C(=O)N[C@@H](CC(=O)O)C(=O)N[C@H](C(=O)Nc1ccccc1)C(C)C` (some centres unmarked) [Compound 124], for which the IC50 under setting [1] was over 10 µM.
For `CC(C)C[C@H](NC(=O)c1ccc2ccccc2n1)C(=O)N[C@@H](CC(=O)O)C(=O)N[C@H](C(=O)Nc1ccccc1)C(C)C` [Compound 125], under setting [1], the IC50 was over 10 µM.
Take `CNC(=O)[C@@H](NC(=O)[C@H](CC(=O)O)NC(=O)[C@H](CC(C)C)N(C)C(=O)c1ccccn1)C(C)C` [Compound 126]: the IC50 under setting [1] was over 10 µM.
On the same count and under the same terms, in the case of `CC(C)C[C@H](NC(=O)c1ccc2ccccc2n1)C(=O)N[C@@H](CC(=O)O)C(=O)N[C@H](C(=O)N1CCN(c2ccccc2)CC1)C(C)C` [Compound 127] it was over 10 µM; in that of `CNC(=O)[C@@H](NC(=O)[C@H](CC(=O)O)NC(=O)[C@H](CC(C)C)N(C)C(=O)c1ccc(OC)cc1)C(C)C` [Compound 128], over 10 µM; in that of `CNC(=O)[C@@H](NC(=O)[C@H](CC(=O)O)NC(=O)[C@H](Cc1ccc(O)cc1)NC(=O)Cc1ccccc1)C(C)C` [Compound 129] (HELM PEPTIDE1{[O=C(Cc1ccccc1)[*:2]].Y.D.V.[CN[*:1]]}$$$$V2.0), over 10 µM.
On the same count and under the same terms, in the case of `CNC(=O)[C@@H](NC(=O)[C@H](CC(=O)O)NC(=O)[C@@H]1CCCN1C(=O)Cc1ccccc1)C(C)C` [Compound 130] (HELM PEPTIDE1{[O=C(Cc1ccccc1)[*:2]].P.D.V.[CN[*:1]]}$$$$V2.0) it was over 10 µM.
Same read-out and setting: in the case of `CNC(=O)[C@@H](NC(=O)[C@H](CC(=O)O)NC(=O)[C@H](CCCNC(=N)N)NC(=O)Cc1ccccc1)C(C)C` [Compound 131] (HELM PEPTIDE1{[O=C(Cc1ccccc1)[*:2]].R.D.V.[CN[*:1]]}$$$$V2.0) it was over 10 µM; in that of `CNC(=O)[C@@H](NC(=O)[C@H](CC(=O)O)NC(=O)[C@H](CC(N)=O)NC(=O)Cc1ccccc1)C(C)C` [Compound 132] (HELM PEPTIDE1{[O=C(Cc1ccccc1)[*:2]].N.D.V.[CN[*:1]]}$$$$V2.0), over 10 µM; in that of `CNC(=O)[C@@H](NC(=O)[C@H](CC(=O)O)NC(=O)C1(NC(=O)OC(C)(C)C)CCc2ccccc2C1)C(C)C` (some centres unmarked) [Compound 133], over 10 µM.
Regarding `CNC(=O)[C@@H](NC(=O)[C@H](CC(=O)O)NC(=O)C1(NC(=O)Cc2ccccc2)CCc2ccccc2C1)C(C)C` (some centres unmarked) [Compound 134], the IC50 under setting [1] was over 10 µM.
With `CC(C)(C)OC(=O)N[C@@H](CC(=O)O)C(=O)N1CCC[C@H]1C(=O)NCC(=O)O` [Compound 135] (HELM PEPTIDE1{[CC(C)(C)OC(=O)[*:2]].D.P.G}$$$$V2.0), the IC50 under setting [1] was over 10 µM.
Same read-out and setting: the same measure for `O=C(O)CNC(=O)[C@@H]1CCCN1C(=O)[C@H](CC(=O)O)NC(=O)Cc1ccccc1` [Compound 136] (HELM PEPTIDE1{[O=C(Cc1ccccc1)[*:2]].D.P.G}$$$$V2.0): over 10 µM; for `CC(C)C[C@H](NC(=O)Cc1ccccc1)C(=O)N[C@@H](CC(=O)O)C(=O)N1CCC[C@H]1C(=O)NC(C(=O)O)C(=O)O` [Compound 138]: over 10 µM; for `COC(=O)[C@@H](NC(=O)[C@H](CC(=O)O)NC(=O)[C@H](CC(C)C)N(C)C(=O)CCc1ccccc1)C(C)C` [Compound 140] (HELM PEPTIDE1{[O=C(CCc1ccccc1)[*:2]].[meL].D.V.[CO[*:1]]}$$$$V2.0): over 10 µM.
Consider `COC(=O)[C@@H](NC(=O)[C@H](CC(=O)O)NC(=O)[C@H](CC(C)C)N(C)C(=O)Cc1ccc(O)cc1)C(C)C` [Compound 141], for which the IC50 under setting [1] is over 10 µM.
The same measure, in the same setting: in the case of `COC(=O)[C@@H](NC(=O)[C@H](CC(=O)O)NC(=O)[C@H](CC(C)C)N(C)C(=O)c1ccc2ccccc2n1)C(C)C` [Compound 142] it was over 10 µM; in that of `COC(=O)[C@@H](NC(=O)[C@H](CC(=O)O)NC(=O)[C@H](CC(C)C)N(C)C(=O)CCCc1ccccc1)C(C)C` [Compound 143], over 10 µM.
Consider `CC(C)C[C@H](NC(=O)Cc1ccc(NC(=O)Nc2ccccc2O)cc1)C(=O)N[C@@H](CC(=O)O)C(=O)N[C@H](C(=O)N1CCC[C@H]1C(=O)O)C(C)C` [Compound 144] ({X1-CO}-[X2]LDVP-OH), for which the IC50 under setting [1] is under 0.05 µM.
With `CC(C)C[C@H](NC(=O)Cc1ccc(NC(=O)Nc2ccccc2)cc1)C(=O)N[C@@H](CC(=O)O)C(=O)N[C@H](C(=O)N1CCC[C@H]1C(=O)O)C(C)C` [Compound 145] ({NHPh-CO}-[X2]LDVP-OH), the IC50 under setting [1] is under 0.05 µM.
The same measure, in the same setting: the same measure for `CSCC[C@H](NC(=O)Cc1ccc(NC(=O)Nc2ccccc2O)cc1)C(=O)N[C@@H](CC(=O)O)C(=O)N[C@H](C(=O)N1CCC[C@H]1C(=O)O)C(C)C` [Compound 146] ({X1-CO}-[X2]MDVP-OH): under 0.05 µM; for `COc1cc(CC(=O)N[C@@H](CC(C)C)C(=O)N[C@@H](CC(=O)O)C(=O)N[C@H](C(=O)N2CCC[C@H]2C(N)=O)C(C)C)ccc1NC(=O)Nc1ccccc1` [Compound 147] ({NHPh-CO}-[X3]LDVP-NH2): under 0.05 µM.
For `Cc1ccccc1NC(=O)Nc1ccc(CC(=O)N[C@@H](CC(C)C)C(=O)N[C@@H](CC(=O)O)C(=O)N[C@H](C(=O)N2CCC[C@H]2C(N)=O)C(C)C)cc1` [Compound 148] ({NH(2-Me-phenyl)-CO}-[X2]LDVP-NH2), under setting [1], the IC50 is under 0.05 µM.
On the same count and under the same terms, in the case of `CC(C)[C@H](NC(=O)[C@H](CC(=O)O)NC(=O)OC(C)(C)C)C(=O)N1CCC[C@H]1C(=O)O` [Compound 149] (HELM PEPTIDE1{[CC(C)(C)OC(=O)[*:2]].D.V.P}$$$$V2.0) it was over 10 µM.
The same measure, in the same setting: the same measure for `CC(C)[C@H](NC(=O)[C@H](CC(=O)O)NC(=O)CCCCc1ccccc1)C(=O)N1CCC[C@H]1C(=O)O` [Compound 150]: over 10 µM; for `C=CCC(CCc1ccccc1)C(=O)N[C@H](C(=O)N1CCC[C@H]1C(=O)O)C(C)C` (some centres unmarked) [Compound 151]: over 10 µM.
